In patent US20140336216A1, “PHYSIOLOGICAL LIGANDS FOR GPR139” (Janssen Pharmaceutica NV, priority 2013, published 2014):
Several values for one entry are separate records, joined by “and”; a condition that tells them apart may be missing. Equal values may be shown once.

Columns and labels:
GO2Q alone = assay: GTPγS binding assay, control COS7 membranes expressing GO2Q alone (Ct-GO2Q); assay type: biochemical; conditions: for Activation levels (GTPγS binding), Ct-GO2Q: 1 mM final concentration, COS7 membranes expressing GO2Q alone, single wells of triplicate; for Activation of membranes from cells expressing GO2Q alone: same assay, 1 mM
Method: (§1) In order identify the ligands for GPR139 two improvements in the detection assay were made to allow for the ligands to be detected. First, we chose to use a GTPγS binding assay instead of using live cultured cells. The GTPγS binding assay is a cell free system that uses the cell membrane of the cell(s) of interest rather than the live cell(s). One advantage of this assay is that potential ligands present in the cell culture media are washed away when the cell membrane is prepared. This reduces the basal level of signal and increase the chance of detecting receptor ligands when assessing compounds that activate the receptor. Second, a GO2Q chimeric G-protein was created to be co-expressed with GPR139 in order to increase the signal-to-noise ratio in the GTPγS binding assay. Historically, the Gi, Go coupled GPCRs offer much greater signal-to-noise ratio in GTPγS binding studies. For Gs and Gq coupled GPCRs, although ligand-stimulated specific signals can be detected in a GTPγS binding assay, the signal-to-noise ratios are often very small. To address this a chimeric GO2-Gq chimeric G-protein, GO2Q, with the N-terminus from Go2 protein and the C-terminus from Gq protein.
(§2) To test for compounds that activate GPR139, different amino acids and their derivatives (Table 2) were tested as ligands in the GTPγS binding assay using cell membranes from COS7 cells co-expressing GPR139 and GO2Q. Cell membrane from COS7 cells expressing GO2Q alone or co-expressing other GPCRs were also tested in GTPγS binding assay in parallel as controls. Each compound was tested in triplicate.

[1] = system: GPR21, GPR52, GPCR119, GPCR132, GPCR134, or GPR182; assay: GTPγS binding assay, control membranes co-expressing GO2Q and other GPCRs (data not shown); assay type: biochemical
Method: as §2

mouse GPR139 = biological target: T1, mouse GPR139 (Mus musculus, UniProt Q80UC8); assay: GTPγS binding dose response study, mouse GPR139 co-transfected with GO2Q into COS7 cells; assay type: biochemical; conditions: mouse GPR139, FIG. 2C and 2D
T1 construct: expressed in transfected cells; host or cells: COS7 (membranes)
T1 sequence (Q80UC8 1-345): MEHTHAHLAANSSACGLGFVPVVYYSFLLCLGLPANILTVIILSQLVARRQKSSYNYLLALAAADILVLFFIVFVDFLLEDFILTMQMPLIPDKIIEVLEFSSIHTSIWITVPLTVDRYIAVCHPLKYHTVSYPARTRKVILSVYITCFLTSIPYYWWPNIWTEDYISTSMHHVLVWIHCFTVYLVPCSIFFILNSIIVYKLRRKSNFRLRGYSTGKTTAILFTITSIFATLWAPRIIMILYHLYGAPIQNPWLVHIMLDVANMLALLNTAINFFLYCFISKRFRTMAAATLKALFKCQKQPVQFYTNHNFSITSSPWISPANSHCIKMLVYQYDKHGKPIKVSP
Source text: (§3) FIG. 2-FIG. 2F: Tryptophan, phenylalanine, and their derivatives activate GPR139. Human (FIG. 2A and FIG. 2B) or mouse (FIG. 2C and FIG. 2D) GPR139 were co-transfected with chimeric G-protein GO2Q into COS7 cells. Cell membranes from transfected cells were used in GTPγS binding studies using various ligands at different concentrations to stimulate GPR139. FIG. 2E and FIG. 2F show control experiments in the dose response studies of Example 1.

[2] = biological target: T2, N-terminally V-tagged mouse GPR139 (Mus musculus, UniProt Q80UC8); assay: GPR139 internalization in transiently transfected HEK-293 cells; assay type: cell-based; conditions: FIG. 4
T2 construct: V tag (printed 'V-tagged' and 'VS-tagged'); expressed in transfected cells; host or cells: HEK-293 (transient)
T2 sequence (Q80UC8 1-345): T1 sequence (Q80UC8 1-345)
Source text: Many GPCRs are internalize by the cell when they are activated.

GPR139 [3] = biological target: T3, GPR139 (Homo sapiens, UniProt Q6DWJ6); assay: GTPγS binding assay, single-concentration screen, COS7 membranes co-expressing GPR139 and GO2Q; assay type: biochemical; parameters: expressed in transfected cells; host or cells: COS7 (membranes); conditions: for Activation of GPR139 in the GTPγS binding assay: 1 mM; for Activation levels of GPR139 (GTPγS binding), GPR139-GO2Q: 1 mM final concentration, COS7 membranes co-expressing GPR139 and GO2Q, single wells of triplicate
T3 sequence (Q6DWJ6 1-353): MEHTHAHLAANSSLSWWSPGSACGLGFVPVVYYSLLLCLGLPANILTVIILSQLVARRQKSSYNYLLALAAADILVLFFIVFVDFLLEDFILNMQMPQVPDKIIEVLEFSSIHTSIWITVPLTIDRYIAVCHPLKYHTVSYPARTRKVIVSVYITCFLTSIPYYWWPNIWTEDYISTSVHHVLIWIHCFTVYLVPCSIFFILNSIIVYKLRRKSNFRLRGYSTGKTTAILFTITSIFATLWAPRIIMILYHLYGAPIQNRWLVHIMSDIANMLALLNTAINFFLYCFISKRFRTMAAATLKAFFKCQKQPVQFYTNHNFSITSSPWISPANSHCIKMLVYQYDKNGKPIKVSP
Method: as §1, §2

GPR139 [4] = biological target: T3, GPR139; assay: GTPγS binding dose response study, human GPR139 co-transfected with GO2Q into COS7 cells; assay type: biochemical; parameters: expressed in transfected cells; host or cells: COS7 (membranes); conditions: human GPR139, FIG. 2A and 2B
Source text: as §3

GPR139 [5] = biological target: T3, GPR139; assay: Calcium mobilization assay (FLIPR), GPR139 expressed in HEK293 cells; assay type: cell-based; parameters: expressed in transfected cells; host or cells: HEK293 (transient); conditions: for EC50: GPR139 expressing HEK293 cells, read-out: EC50 (half maximal effective concentration), calcium mobilization; for Stimulation of calcium mobilization: human GPR139 transiently expressed in HEK293 cells, FIG. 3
Method: FIG. 3A and FIG. 3B: Provides the results of experiments conducted to determine whether Trp and its derivatives (FIG. 3A) and Phe and its derivatives (FIG. 3B) stimulate Ca^2+ mobilization in HEK293 cells expressing GPR139.
The active compounds were also tested in a calcium mobilization assay (FLIPR® assay). For these experiments human GPR139 was transiently expressed in HEK293 cells and calcium mobilization was stimulated using L-Trp, L-Phe or their derivatives. […] The concentrations of L-Trp and L-Phe in many cell culture media (for instance DMEM is about 80 μM and 750 μM respectively) are close to the EC50 values of L-Trp and L-Phe for GPR139. […] This may explain why GPR139 appeared constitutively active when recombinantly expressed in mammalian cells.
About 300 additional phenylalanine analogues have been tested for GPR139 activation using a calcium mobilization (FLIPR®) assay. The results of these experiments indicate that many of these analogues can also activate GPR139. Table 4 lists certain phenylalanine analogues that have been determined to activate GPR139 by calcium mobilization at a concentration of 300 μM (calcium mobilization is expressed as percentage of that observed for L-phenylalanine).

Compound | Activation levels (GTPγS binding), Ct-GO2Q (GO2Q alone) | Activation of membranes from cells expressing GO2Q alone (GO2Q alone) | Activation of membranes from cells co-expressing GO2Q and other GPCRs [1] | Dose-responsive activation of GPR139 (GTPγS binding) (mouse GPR139) | Internalization of tagged GPR139 upon stimulation [2] | Activation of GPR139 in the GTPγS binding assay (GPR139 [3]) | Activation levels of GPR139 (GTPγS binding), GPR139-GO2Q (GPR139 [3]) | Dose-responsive activation of GPR139 (GTPγS binding) (GPR139 [4]) | EC50 (GPR139 [5]) | Stimulation of calcium mobilization (GPR139 [5])
N[C@@H](Cc1ccccc1)C(=O)O [Phe, L-phenylalanine] | 2190 and 2215 and 2345 | did not activate | did not activate | specifically activate GPR139 in a dose-responsive manner | internalized | able to activate GPR139 | 8697 and 6925 and 8417 | specifically activate GPR139 in a dose-responsive manner | 100 to 200 µM | specifically stimulate calcium mobilization
N[C@@H](Cc1c[nH]c2ccccc12)C(=O)O [Trp, L-tryptophan] | 2172 and 2234 and 2272 | did not activate | did not activate | specifically activate GPR139 in a dose-responsive manner | internalized | able to activate GPR139 | 8141 and 9121 and 9149 | specifically activate GPR139 in a dose-responsive manner | 100 to 200 µM | specifically stimulate calcium mobilization
